Experimental data as given in paper PMC10108347, “Heterobifunctional Ligase Recruiters Enable pan-Degradation of Inhibitor of Apoptosis Proteins” (Journal of Medicinal Chemistry, 2023).
Like-named read-outs stand apart in the source and are kept apart here. *1 amine or outer side, *2 acyl side, *3 side chain or, on linkers, in order; H or OH if unused. Where a SMILES comes first, the peptide text is derived from it. Bridges are numbered along the chain shown (N, C = ends). Roman numbers before positions name the chains, in order. [ ]: non-standard residue; d: D form. Hexamethylenediamine = C(CCCN[*:2])CCN[*:1]; dDip = N[C@@H](C(=O)O)C(c1ccccc1)c1ccccc1; Chg = N[C@H](C(=O)O)C1CCCCC1; dNMeA = CN[C@H](C)C(=O)O

Legend:
cIAP2 = cIAP2 (Homo sapiens, UniProt Q13489); assay: Immunoblotting (western blot) quantification of cIAP2 levels in MM.1S cells; conditions: 16 h; for remaining activity at 0.1 µM: MM1.S
Chain of cIAP2 (Q13489 whole entry): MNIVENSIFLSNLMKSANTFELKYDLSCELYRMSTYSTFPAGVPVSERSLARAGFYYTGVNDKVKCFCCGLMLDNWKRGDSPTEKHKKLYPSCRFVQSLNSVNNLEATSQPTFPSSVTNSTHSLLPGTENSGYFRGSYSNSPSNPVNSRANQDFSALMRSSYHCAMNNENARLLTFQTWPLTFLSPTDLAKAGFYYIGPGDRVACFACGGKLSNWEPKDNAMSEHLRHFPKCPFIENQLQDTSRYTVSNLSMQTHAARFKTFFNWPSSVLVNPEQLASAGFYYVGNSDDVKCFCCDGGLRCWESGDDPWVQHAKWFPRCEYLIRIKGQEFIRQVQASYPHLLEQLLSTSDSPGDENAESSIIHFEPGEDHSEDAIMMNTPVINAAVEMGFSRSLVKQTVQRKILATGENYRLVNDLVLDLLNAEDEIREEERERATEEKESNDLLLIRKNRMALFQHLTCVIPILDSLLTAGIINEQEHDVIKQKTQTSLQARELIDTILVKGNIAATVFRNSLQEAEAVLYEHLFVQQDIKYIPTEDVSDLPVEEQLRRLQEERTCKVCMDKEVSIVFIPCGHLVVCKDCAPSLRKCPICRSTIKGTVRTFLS
Protocol: (§3) To evaluate the capability of our panel of hetero-PROTACs for E3 ligase degradation, VHL19, VHL30, CRBN, cIAP1, cIAP2, and XIAP levels were quantified by western blot analyses. […] SDS-PAGE was performed, and proteins were then transferred onto PVDF membranes. Blotted membranes were blocked with 5% milk in Tris-buffered saline/Tween20 (TBST). Primary antibodies were diluted in 5% BSA in TBST, and incubations were performed overnight at 4 °C. Secondary HRP-conjugated antibodies diluted in 5% milk were incubated for 1 h at room temperature. Detection of proteins on PVDF was carried out using the WesternBright ECL HRP substrate or the WesternBright Sirius HRP substrate (Advansta, San Jose, USA) and imaged with LAS 4000× (Fujifilm). Membranes were subjected to 10 min incubation with Restore Western Blot Stripping Buffer (Thermo Fisher Scientific, Waltham, USA), followed by TBST washes. After brief re-activation with methanol, the membranes were blocked, and further probing of proteins was carried out.
(§4) Quantification of blots was performed using ImageJ software (National Institutes of Health).

[1] = system: IAPs (cIAP1, cIAP2, XIAP); assay: Immunoblotting of IAPs in MM.1S cells, overall degradation profile, time course and washout; format: cell-based; conditions: 16 h, western blot, concentration (10 nM to 1 μM)
Protocol: Next, we examined the persistence of IAP degradation in MM.1S cells after a single exposure to 1 μM of 9 and subsequent removal of the compound. […] The reliance on CRL2^VHL was assessed with a neddylation inhibitor MLN4924, which blocks the activity of CRLs (Figure S13A).

cIAP1 [2] = target: T1, cIAP1 (Homo sapiens, UniProt Q13490); assay: Immunoblotting (western blot) quantification of cIAP1 levels in MM.1S cells; conditions: 16 h; for remaining activity at 0.1 µM: MM1.S
T1 sequence (Q13490 whole entry): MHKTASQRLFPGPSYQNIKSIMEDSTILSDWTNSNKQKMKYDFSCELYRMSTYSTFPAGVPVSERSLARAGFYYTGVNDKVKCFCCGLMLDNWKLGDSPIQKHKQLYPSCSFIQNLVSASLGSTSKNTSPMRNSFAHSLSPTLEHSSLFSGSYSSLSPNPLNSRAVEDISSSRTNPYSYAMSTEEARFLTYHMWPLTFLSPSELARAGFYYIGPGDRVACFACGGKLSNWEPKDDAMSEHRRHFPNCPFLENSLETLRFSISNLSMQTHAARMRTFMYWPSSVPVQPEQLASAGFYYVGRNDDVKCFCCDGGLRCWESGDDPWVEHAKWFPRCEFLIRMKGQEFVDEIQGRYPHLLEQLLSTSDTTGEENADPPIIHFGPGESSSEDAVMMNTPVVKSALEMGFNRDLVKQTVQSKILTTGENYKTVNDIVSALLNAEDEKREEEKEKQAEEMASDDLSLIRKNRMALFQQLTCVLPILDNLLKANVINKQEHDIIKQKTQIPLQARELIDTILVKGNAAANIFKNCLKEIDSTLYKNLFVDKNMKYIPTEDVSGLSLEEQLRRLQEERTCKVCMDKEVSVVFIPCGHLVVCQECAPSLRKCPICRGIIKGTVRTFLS

XIAP [3] = target: T2, XIAP (Homo sapiens, UniProt P98170); assay: Immunoblotting (western blot) quantification of XIAP levels in MM.1S cells; conditions: 16 h; for remaining activity at 0.1 µM: MM1.S
T2 sequence (P98170 whole entry): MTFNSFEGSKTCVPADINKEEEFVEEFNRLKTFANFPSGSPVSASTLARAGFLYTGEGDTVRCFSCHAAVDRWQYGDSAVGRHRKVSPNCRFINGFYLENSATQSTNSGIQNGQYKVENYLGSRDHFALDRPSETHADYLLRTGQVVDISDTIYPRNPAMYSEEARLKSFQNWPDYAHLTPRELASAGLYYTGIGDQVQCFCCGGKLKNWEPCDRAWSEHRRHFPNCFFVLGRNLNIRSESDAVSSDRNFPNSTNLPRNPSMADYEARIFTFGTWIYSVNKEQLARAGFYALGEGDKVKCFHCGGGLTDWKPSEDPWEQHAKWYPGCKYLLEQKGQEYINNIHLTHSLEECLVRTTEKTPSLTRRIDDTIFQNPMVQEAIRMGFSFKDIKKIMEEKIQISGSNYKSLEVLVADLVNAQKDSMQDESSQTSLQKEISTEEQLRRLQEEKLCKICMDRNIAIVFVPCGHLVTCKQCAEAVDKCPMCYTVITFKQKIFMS

physchem = conditions: pH 7.4
Protocol: The system was calibrated by plotting the retention times of six different drugs (atenolol, metoprolol, labetalol, diltiazem, triphenylene, and permethrin) versus their literature-known log D7.4 in a calibration line (R^2 = 0.99). Subsequently, the mean retention times of the analytes were taken to calculate their log D7.4 values with the aid of the calibration line. At least two independent measurements of each analyte were performed.

XIAP [4] = target: T2, XIAP; assay: Immunoblotting of XIAP in HG3 wild-type and HG3 VHL-knockout cells; format: cell-based; design: endogenous in cells; host or cells: MM.1S; conditions: 1 μM, 16 h
Protocol: (§1) Next, cellular activities of hetero-PROTACs 2, 4, and 6 were evaluated in chronic lymphocytic leukemia cells (HG3), for which a VHL-knockout cell line was created (Figure 5). […] Thus, VHL knockout confirmed the involvement of E3 ubiquitin ligase CRL2^VHL in the induced degradation of XIAP (and, at least in part, cIAP1) by these IAP-VHL heterobifunctional PROTACs. This provides additional evidence that the degradation of IAPs relies on the formation of a hetero–ternary complex consisting of both ligases and the degraders.
(§2) For generation of lentiviral vectors, HEK293T cells were transfected with constructs along with the packaging and envelope vectors. Viral supernatants were harvested 48 h after transfection and were used to transduce cell lines. MM.1S and HG3 cells were transduced with virus containing pLKO5d.SSF.SpCas9.P2a.BSD, and cells were selected with blasticidin. Selected cells were then transduced with respective sgRNA constructs targeting VHL, cIAP1, cIAP2, XIAP, and negative control luciferase, which were cloned into pLKO5.hU6.sgRNA.dTom. Transduction success was confirmed through FACS analysis 48 h post-transduction with a minimum efficiency of 95% tomato fluorescence.

VHL30 = VHL30 (Homo sapiens, UniProt P40337); assay: Immunoblotting (western blot) quantification of VHL30 levels in MM.1S cells; conditions: for remaining activity at 0.1 µM: MM1.S, 16 h
Chain of VHL30 (P40337 whole entry): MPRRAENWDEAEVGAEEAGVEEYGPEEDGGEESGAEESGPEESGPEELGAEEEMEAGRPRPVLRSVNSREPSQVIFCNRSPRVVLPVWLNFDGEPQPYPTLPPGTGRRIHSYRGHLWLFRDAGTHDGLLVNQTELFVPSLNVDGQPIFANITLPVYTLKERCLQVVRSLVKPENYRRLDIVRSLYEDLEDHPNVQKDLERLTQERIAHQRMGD

VHL19 = VHL19 (Homo sapiens, UniProt P40337); assay: Immunoblotting (western blot) quantification of VHL19 levels in MM.1S cells; conditions: 16 h, western blot
Chain of VHL19 (P40337 54-213): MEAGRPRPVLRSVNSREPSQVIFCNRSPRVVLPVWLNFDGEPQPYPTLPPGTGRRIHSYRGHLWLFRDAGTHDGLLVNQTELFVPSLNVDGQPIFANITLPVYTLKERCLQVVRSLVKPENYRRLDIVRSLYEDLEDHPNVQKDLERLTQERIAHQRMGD
Protocol: as §3, §4

cIAP1 [5] = target: T1, cIAP1; assay: Immunoblotting of cIAP1 in HG3 wild-type and HG3 VHL-knockout cells; format: cell-based; design: endogenous in cells; host or cells: MM.1S; conditions: 1 μM, 16 h
Protocol: as §1, §2

[6] = MM.1S cells, western blot, 0.1 or 1 μM
[7] = read-out: %remaining protein cIAP2, MM.1S cells, 16 h treatment at 0.1 μM, normalized to loading control and DMSO
[8] = read-out: %remaining protein cIAP1, MM.1S cells, 16 h treatment at 0.1 μM, normalized to loading control and DMSO
[9] = read-out: %remaining protein VHL30, MM.1S cells, 16 h treatment at 0.1 μM, normalized to loading control and DMSO
[10] = read-out: %remaining protein XIAP, MM.1S cells, 16 h treatment at 0.1 μM, normalized to loading control and DMSO

| Compound | cIAP2 degradation (in words) (cIAP2; [6]) | IAP degradation profile (in words) [1] | cIAP1 degradation (in words) (cIAP1 [2]; [6]) | XIAP degradation (in words) (XIAP [3]; [6]) | chromatographic logD (physchem) | remaining activity at 0.1 µM (cIAP2; [7]) [%] | remaining activity at 0.1 µM (cIAP1 [2]; [8]) [%] | XIAP degradation in VHL+/+ and VHL–/– HG3 cells (in words) (XIAP [4]) | remaining activity at 0.1 µM (VHL30; [9]) [%] | VHL30 degradation (in words) (VHL30; MM.1S cells, western blot) | remaining activity at 0.1 µM (XIAP [3]; [10]) [%] | VHL19 degradation (in words) (VHL19) | cIAP1 degradation in VHL+/+ and VHL–/– HG3 cells (in words) (cIAP1 [5]) | remaining activity at 0.1 µM (cIAP2; read-out: %remaining protein cIAP2) [%] | remaining activity at 0.1 µM (cIAP1 [2]; read-out: %remaining protein cIAP1) [%] | remaining activity at 0.1 µM (VHL30; read-out: %remaining protein VHL30) [%] | remaining activity at 0.1 µM (XIAP [3]; read-out: %remaining protein XIAP) [%] |
| --- | --- | --- | --- | --- | --- | --- | --- | --- | --- | --- | --- | --- | --- | --- | --- | --- | --- |
| CN[C@H](C)C(=O)N[C@H](C(=O)N1CCC[C@@H]1C(=O)N[C@@H](C(=O)NCCCCCCNC(=O)[C@H](NC(=O)[C@H]1CCCN1C(=O)[C@@H](NC(=O)[C@@H](C)NC)C1CCCCC1)C(c1ccccc1)c1ccccc1)C(c1ccccc1)c1ccccc1)C1CCCCC1 [BV6, reference compound] (I: H-[dNMeA][Chg][dP][dDip] / II: H-[dNMeA][Chg][dP][dDip]; linker I:C-II:C via Hexamethylenediamine) | substantial degradation | potent cIAP autodegradation | substantial degradation | failed to degrade XIAP | 3.4 | – | – | – | – | – | – | – | – | – | – | – | – |
| CN[C@@H](C)C(=O)N[C@H](C(=O)N1C[C@@H](Oc2cccc(OCCCCCCCC(=O)N[C@H](C(=O)N3C[C@H](O)C[C@H]3C(=O)NCc3ccc(-c4scnc4C)cc3)C(C)(C)C)c2)C[C@H]1C(=O)N[C@@H]1CCCc2ccccc21)C1CCCCC1 [PROTAC 2, (2S,4S)-1-((S)-2-Cyclohexyl-2-((S)-2-(methylamino)propanamido)acetyl)-4-(3-((8-(((S)-1-((2S,4R)-4-hydroxy-2-((4-(4-methylthiazol-5-yl)benzyl)carbamoyl)pyrrolidin-1-yl)-3,3-dimethyl-1-oxobutan-2-yl)amino)-8-oxooctyl)oxy)phenoxy)-N-((R)-1,2,3,4-tetrahydronaphthalen-1-yl)pyrrolidine-2-carboxamide] | – | – | – | – | – | 23 | 4 | occurred only in HG3 wild-type cells | 28 | strong and dose-dependent VHL30 degradation | 5 | slight hook effect for VHL19 degradation | cIAP1 autodegradation was observed | – | – | – | – |
| CN[C@@H](C)C(=O)N[C@H](C(=O)N1C[C@@H](Oc2cccc(OCCOCCOCC(=O)N[C@H](C(=O)N3C[C@H](O)C[C@H]3C(=O)NCc3ccc(-c4scnc4C)cc3)C(C)(C)C)c2)C[C@H]1C(=O)N[C@@H]1CCCc2ccccc21)C1CCCCC1 [PROTAC 4, (2S,4S)-1-((S)-2-Cyclohexyl-2-((S)-2-(methylamino)propanamido)acetyl)-4-(3-(2-(2-(2-(((S)-1-((2S,4R)-4-hydroxy-2-((4-(4-methylthiazol-5-yl)benzyl)carbamoyl)pyrrolidin-1-yl)-3,3-dimethyl-1-oxobutan-2-yl)amino)-2-oxoethoxy)ethoxy)ethoxy)phenoxy)-N-((R)-1,2,3,4-tetrahydronaphthalen-1-yl)pyrrolidine-2-carboxamide] | – | – | – | – | – | 40 | 4 | occurred only in HG3 wild-type cells | 44 | – | 7 | – | cIAP1 autodegradation was observed | – | – | – | – |
| CN[C@@H](C)C(=O)N[C@H](C(=O)N1C[C@@H](Oc2cccc(OCCCCCCOCCCCCCOCC(=O)N[C@H](C(=O)N3C[C@H](O)C[C@H]3C(=O)NCc3ccc(-c4scnc4C)cc3)C(C)(C)C)c2)C[C@H]1C(=O)N[C@@H]1CCCc2ccccc21)C1CCCCC1 [PROTAC 6, (2S,4S)-1-((S)-2-Cyclohexyl-2-((S)-2-(methylamino)propanamido)acetyl)-4-(3-((6-((6-(2-(((S)-1-((2S,4R)-4-hydroxy-2-((4-(4-methylthiazol-5-yl)benzyl)carbamoyl)pyrrolidin-1-yl)-3,3-dimethyl-1-oxobutan-2-yl)amino)-2-oxoethoxy)hexyl)oxy)hexyl)oxy)phenoxy)-N-((R)-1,2,3,4-tetrahydronaphthalen-1-yl)pyrrolidine-2-carboxamide] | – | – | – | – | – | – | – | occurred only in HG3 wild-type cells | – | – | – | – | cIAP1 autodegradation was observed | 29 | 2 | 78 | 2 |
